Measurements from the supplement of paper PMC10307832.

Legend:
Assay in all cases: relative viability (nuclei count vs DMSO), 5 days (fraction); higher = more cells survive
Apatinib + Phenformin = compound: N#CC1(c2ccc(NC(=O)c3cccnc3NCc3ccncc3)cc2)CCCC1 [Apatinib] + N=C(N)NC(=N)NCCc1ccccc1 [Phenformin] (partner 250 µM)
In short: (§1)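 Nuclei were stained with Hoechst during a one-step fixation (final 0.05% Triton X-100, 1% formaldehyde, 1 ug/ml Hoechst) carried out 5 days after dosing, then counted on 4× images. The cells, lung cancer lines in 1536-well plates, had been dosed by pin tool the day after seeding with one drug alone or a fixed anchor-drug dose plus five library-drug doses (not always all listed) in √10 steps. Relative viability is the nuclei count in treated wells divided by that in vehicle wells, and each value is the median of duplicate plates.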

Apatinib + AZD7762 = compound: N#CC1(c2ccc(NC(=O)c3cccnc3NCc3ccncc3)cc2)CCCC1 [Apatinib] + NC(=O)Nc1cc(-c2cccc(F)c2)sc1C(=O)N[C@H]1CCCNC1 [AZD7762] (partner 0.2 µM)
In short: as §1

Metformin + Bortezomib = compound: CN(C)C(=N)NC(=N)N [Metformin] + CC(C)C[C@H](NC(=O)[C@H](Cc1ccccc1)NC(=O)c1cnccn1)B(O)O [Bortezomib] (partner 0.002 µM)
In short: as §1

Metformin + Vorinostat = compound: CN(C)C(=N)NC(=N)N [Metformin] + O=C(CCCCCCC(=O)Nc1ccccc1)NO [Vorinostat] (partner 1 µM)
In short: as §1

Cell Line	relative viability (Apatinib + Phenformin; first compound 0.08 µM)	relative viability (Apatinib + Phenformin; first compound 0.253 µM)	relative viability (Apatinib + Phenformin; first compound 0.8 µM)	relative viability (Apatinib + Phenformin; first compound 2.53 µM)	relative viability (Apatinib + Phenformin; first compound 8 µM)	relative viability (Apatinib + AZD7762; first compound 0.08 µM)	relative viability (Apatinib + AZD7762; first compound 0.253 µM)	relative viability (Apatinib + AZD7762; first compound 0.8 µM)	relative viability (Apatinib + AZD7762; first compound 2.53 µM)	relative viability (Apatinib + AZD7762; first compound 8 µM)	relative viability (Metformin + Bortezomib; first compound 10 µM)	relative viability (Metformin + Bortezomib; first compound 31.62 µM)	relative viability (Metformin + Bortezomib; first compound 100 µM)	relative viability (Metformin + Bortezomib; first compound 316.23 µM)	relative viability (Metformin + Bortezomib; first compound 1000 µM)	relative viability (Metformin + Vorinostat; first compound 31.62 µM)	relative viability (Metformin + Vorinostat; first compound 100 µM)	relative viability (Metformin + Vorinostat; first compound 316.23 µM)	relative viability (Metformin + Vorinostat; first compound 1000 µM)	relative viability (Metformin + Vorinostat; first compound 10 µM)
HCC-44	0.153	0.17	0.309	0.22	0.203	1.03	1.01	0.983	0.96	0.947	0.861	0.858	0.88	0.88	0.856	1.02	1.09	1.06	1.03	–
HOP-62	0.646	0.646	0.638	0.625	0.577	0.676	0.536	0.453	0.361	0.348	0.602	0.745	0.209	0.723	0.816	0.705	0.699	0.456	0.738	0.425
NCI-H358	0.316	0.353	0.321	0.377	0.383	0.548	0.573	0.475	0.45	0.343	–	–	–	–	–	0.584	0.577	0.578	0.525	0.546
NCI-H596	0.801	0.724	0.723	0.705	0.711	1.09	1.04	0.863	0.944	0.901	1.05	1.13	1.3	1.27	1.21	0.854	0.674	0.596	0.784	0.691
ABC-1	–	0.264	0.234	0.217	0.249	–	0.687	0.882	0.767	0.727	–	0.294	0.334	0.277	0.344	0.953	1.1	1.08	0.332	–
SW 900	0.714	0.606	0.54	0.362	0.425	0.656	0.587	0.563	0.374	0.401	–	–	–	–	–	0.765	–	0.457	0.682	0.548
NCI-H1734	0.401	0.481	0.381	0.342	0.353	0.597	0.594	0.548	0.439	0.389	0.952	1.06	0.947	0.951	0.917	0.907	0.81	0.78	0.914	0.753
HARA	0.424	0.455	0.391	0.28	0.298	0.344	0.38	0.184	–	0.128	1.2	1.07	1.19	1.13	1.18	0.587	0.39	0.382	0.445	0.419
NCI-H1703	–	–	–	–	–	0.147	0.127	0.123	0.0918	0.127	0.389	0.394	0.453	0.42	0.505	–	–	–	–	–
A549	0.181	0.219	0.144	0.125	0.0802	–	–	–	–	–	–	–	–	–	–	–	–	–	–	–
NCI-H1915	0.377	0.353	0.334	0.354	0.326	0.733	0.685	0.648	0.567	0.505	–	1.01	0.985	0.961	1.02	0.499	0.498	0.46	0.517	–
NCI-H1355	0.438	0.443	0.447	0.406	0.385	0.699	0.812	0.593	0.447	0.457	1.1	1.18	1.14	1.17	1.24	0.522	0.632	0.589	0.609	0.597
NCI-H1650	–	0.503	0.35	0.35	0.318	–	–	–	–	–	0.208	0.206	0.232	0.231	0.231	0.675	0.799	0.529	0.52	0.492
HCC-78	0.644	0.607	0.691	0.605	0.618	0.553	0.766	0.666	0.539	0.638	0.842	0.797	0.929	0.831	0.853	0.479	0.559	0.516	0.417	–
NCI-H1666	0.567	0.572	0.6	0.53	0.564	0.828	0.871	0.776	0.769	0.746	0.789	0.942	0.71	0.828	0.864	0.946	1.01	1.06	1.1	0.979
HCC-15	0.472	0.512	0.435	0.39	0.371	1.13	1.23	1.12	1.15	1.05	0.617	1.08	1.04	0.932	1.09	0.849	0.959	0.77	0.95	0.84
EKVX	0.233	0.228	0.234	0.216	0.234	0.641	0.572	0.656	0.593	0.574	0.737	1.07	1.06	0.934	0.338	0.67	0.655	0.644	0.762	–
NCI-H3122	0.351	0.361	0.319	0.271	0.298	0.983	0.988	1.02	0.946	0.933	0.824	0.97	0.921	0.863	0.886	0.942	0.87	0.807	0.775	0.459
NCI-H1651	0.319	0.322	0.309	0.288	0.316	0.325	0.514	0.44	0.322	0.324	0.989	1.15	1.16	1.04	1.08	0.652	0.568	0.614	0.608	0.505
